{
  "source": "paper PMC10364322",
  "about": "“Evaluation of chronic drug-induced electrophysiological and cytotoxic effects using human-induced pluripotent stem cell-derived cardiomyocytes (hiPSC-CMs)” (Frontiers in Pharmacology, 2023)",
  "key": {"[1]": {"system": "hiPSC-CMs (iCell-Cardiomyocytes^2)", "test": "MEA impedance (cytotoxicity readout) in hiPSC-CMs", "method": "(§1) Cells were seeded according to the instructions of the cell provider, in fibronectin-coated 48-well MEA plates (Axion Cytoview Plates, M768-tMEA-48B) at a density suited to form a monolayer (i.e., 50 K/well) and maintained in culture in a stage incubator (37°C, 5% CO2).\n(§2) At least 4 h before the beginning of the baseline measurements, a full medium exchange was performed (to a final volume of 400 µL per well). Neat compounds were dissolved in 100% DMSO at a stock concentration 1000-fold the highest target concentration. […] Afterwards, these stock solutions were diluted with Maintenance medium (CDi), to 10-fold the intended concentration. The final DMSO concentration in test solutions and vehicle control was 0.1%.\n(§3) Spontaneous electrical activity was recorded in hiPSC-CMs monolayers as field potentials using the Maestro Pro MEA instrument (Axion Biosystems, Atlanta, GA, United States), which allows the maintenance of accurate temperature and CO2 levels (37°C, 5% CO2). After the plate was placed in the Maestro Pro and allowed to equilibrate for about 10 min, baseline acquisition of field potential and impedance signals was initiated and lasted for 5 min each. […] As impedance measures resistance of an applied alternating current through the hiPSC-CMs monolayer, a reduction in the attachment of hiPSC-CMs to the bottom of the well due to cell death or changes in the monolayer morphology, causes a drop in the impedance signal.\n(§4) After the acquisition of all timepoint measurements, raw data were loaded into the data analysis software Axion Cardiac Analysis Tool (V.3.2.3). […] A.csv file containing information on the FP parameters per well, per time point, was then generated and used as input to the in-house data management system (SPEcII v.3.4, Unlimit-IT, Geel, Belgium), where descriptive statistics were calculated. Summary values at different time points after compound addition are expressed as percent change from baseline and shown as mean ± standard deviation (SD).\n(§5) The nonparametric Wilcoxon-Mann Whitney Test was used to compare the percent change from the baseline (Δ%) value between the group treated with the compound at a given concentration and the group treated with the DMSO at each matching time points. A two-sided test at 5% significance level was considered. […] To assess the physiological relevance of changes, a tolerance interval of DMSO experiments was calculated at each time point, for each parameter. […] TIs indicate an interval where, with a certain confidence level (1- α = 0.95), a specified proportion (p = 0.80) of percent change for DMSO data falls. The lower and upper limits based on the TI values were used as cut-offs for the interpretation of the changes. For the cytotoxicity assays, measurements of fluorescence (after background fluorescence subtraction) from wells treated with the compounds were normalized by the average value of vehicle experiments (DMSO 0.1%) to obtain a DMSO-corrected, delta/delta percent change. Experiments from each condition, as delta/delta percent, were averaged and expressed as mean ± SD. Statistical analysis was performed using a non-parametric test (Kruskal-Wallis) and each treatment condition was compared to the relative DMSO 0.1%. Differences were considered statistically significant when the p-value was smaller than 0.05."}, "[2]": {"system": "hiPSC-CMs (iCell-Cardiomyocytes^2)", "method": "as §1, §2, §3\nThe potential presence of various arrhythmic events was evaluated and noted during the data analysis.\nas §4, §5"}, "[3]": {"conditions": "free therapeutic Cmax in humans; ref FDA-approved drug packages, PharmaPendium; cited from earlier work"}, "[4]": {"conditions": "all concentrations tested, up to 96 h"}},
  "note": "Where two headings read alike, the source gives them in different places.",
  "data": [
    {"smiles": "CC(=O)Oc1ccccc1C(=O)O", "note": "[Aspirin]", "values": [
      {"measurement": "Imp (impedance), % change from baseline", "setting": "[1]; 3 µM, 72h", "result": "-2±2", "unit": "%"},
      {"measurement": "Imp (impedance), % change from baseline", "setting": "[1]; 3 µM, 96h", "result": "-7±3", "unit": "%"},
      {"measurement": "Imp (impedance), % change from baseline", "setting": "[1]; 3 µM, 2h", "result": "5±3", "unit": "%"},
      {"measurement": "Imp (impedance), % change from baseline", "setting": "[1]; 3 µM, 24h", "result": "-9±4", "unit": "%"},
      {"measurement": "Imp (impedance), % change from baseline", "setting": "[1]; 3 µM, 48h", "result": "-10±2", "unit": "%"},
      {"measurement": "Imp (impedance), % change from baseline", "setting": "[1]; 10 µM, 2h", "result": "6±2", "unit": "%"},
      {"measurement": "Imp (impedance), % change from baseline", "setting": "[1]; 10 µM, 24h", "result": "-8±3", "unit": "%"},
      {"measurement": "Imp (impedance), % change from baseline", "setting": "[1]; 10 µM, 48h", "result": "-7±3", "unit": "%"},
      {"measurement": "Imp (impedance), % change from baseline", "setting": "[1]; 10 µM, 72h", "result": "-4±5", "unit": "%"},
      {"measurement": "Imp (impedance), % change from baseline", "setting": "[1]; 10 µM, 96h", "result": "-6±6", "unit": "%"},
      {"measurement": "Imp (impedance), % change from baseline", "setting": "[1]; 30 µM, 2h", "result": "6±4", "unit": "%"},
      {"measurement": "Imp (impedance), % change from baseline", "setting": "[1]; 30 µM, 24h", "result": "-4±3", "unit": "%"},
      {"measurement": "Imp (impedance), % change from baseline", "setting": "[1]; 30 µM, 48h", "result": "-8±3", "unit": "%"},
      {"measurement": "Imp (impedance), % change from baseline", "setting": "[1]; 30 µM, 72h", "result": "-1±2", "unit": "%"},
      {"measurement": "Imp (impedance), % change from baseline", "setting": "[1]; 30 µM, 96h", "result": "-3±2", "unit": "%"},
      {"measurement": "Imp (impedance), % change from baseline", "setting": "[1]; 100 µM, 2h", "result": "8±1", "unit": "%"},
      {"measurement": "Imp (impedance), % change from baseline", "setting": "[1]; 100 µM, 24h", "result": "-7±4", "unit": "%"},
      {"measurement": "Imp (impedance), % change from baseline", "setting": "[1]; 100 µM, 48h", "result": "-11±3", "unit": "%"},
      {"measurement": "Imp (impedance), % change from baseline", "setting": "[1]; 100 µM, 72h", "result": "-2±6", "unit": "%"},
      {"measurement": "Imp (impedance), % change from baseline", "setting": "[1]; 100 µM, 96h", "result": "-6±7", "unit": "%"},
      {"measurement": "effect on impedance", "setting": "[1]; [4]", "result": "did not have a significant effect on impedance"},
      {"measurement": "BR (beating rate), % change from baseline", "setting": "[2]; 3 µM, 72h", "result": "-10±2", "unit": "%"},
      {"measurement": "FPD (field-potential duration), % change from baseline", "setting": "[2]; 3 µM, 72h", "result": "16.3±2.2", "unit": "%"},
      {"measurement": "BR (beating rate), % change from baseline", "setting": "[2]; 3 µM, 96h", "result": "-18±1", "unit": "%"},
      {"measurement": "FPD (field-potential duration), % change from baseline", "setting": "[2]; 3 µM, 96h", "result": "25.2±3.5", "unit": "%"},
      {"measurement": "BR (beating rate), % change from baseline", "setting": "[2]; 3 µM, 2h", "result": "2±2", "unit": "%"},
      {"measurement": "FPD (field-potential duration), % change from baseline", "setting": "[2]; 3 µM, 2h", "result": "2.5±1.6", "unit": "%"},
      {"measurement": "BR (beating rate), % change from baseline", "setting": "[2]; 3 µM, 24h", "result": "1±2", "unit": "%"},
      {"measurement": "FPD (field-potential duration), % change from baseline", "setting": "[2]; 3 µM, 24h", "result": "6.2±3", "unit": "%"},
      {"measurement": "BR (beating rate), % change from baseline", "setting": "[2]; 3 µM, 48h", "result": "-7±1", "unit": "%"},
      {"measurement": "FPD (field-potential duration), % change from baseline", "setting": "[2]; 3 µM, 48h", "result": "13.2±2.8", "unit": "%"},
      {"measurement": "BR (beating rate), % change from baseline", "setting": "[2]; 10 µM, 2h", "result": "3±2", "unit": "%"},
      {"measurement": "FPD (field-potential duration), % change from baseline", "setting": "[2]; 10 µM, 2h", "result": "4±7.9", "unit": "%"},
      {"measurement": "BR (beating rate), % change from baseline", "setting": "[2]; 10 µM, 24h", "result": "2±3", "unit": "%"},
      {"measurement": "FPD (field-potential duration), % change from baseline", "setting": "[2]; 10 µM, 24h", "result": "5.8±4.5", "unit": "%"},
      {"measurement": "BR (beating rate), % change from baseline", "setting": "[2]; 10 µM, 48h", "result": "-8±3", "unit": "%"},
      {"measurement": "FPD (field-potential duration), % change from baseline", "setting": "[2]; 10 µM, 48h", "result": "12.2±6.3", "unit": "%"},
      {"measurement": "BR (beating rate), % change from baseline", "setting": "[2]; 10 µM, 72h", "result": "-9±2", "unit": "%"},
      {"measurement": "FPD (field-potential duration), % change from baseline", "setting": "[2]; 10 µM, 72h", "result": "14.6±6.7", "unit": "%"},
      {"measurement": "BR (beating rate), % change from baseline", "setting": "[2]; 10 µM, 96h", "result": "-17±3", "unit": "%"},
      {"measurement": "FPD (field-potential duration), % change from baseline", "setting": "[2]; 10 µM, 96h", "result": "23.3±7.8", "unit": "%"},
      {"measurement": "BR (beating rate), % change from baseline", "setting": "[2]; 30 µM, 2h", "result": "3±2", "unit": "%"},
      {"measurement": "FPD (field-potential duration), % change from baseline", "setting": "[2]; 30 µM, 2h", "result": "0.9±1.8", "unit": "%"},
      {"measurement": "BR (beating rate), % change from baseline", "setting": "[2]; 30 µM, 24h", "result": "0±4", "unit": "%"},
      {"measurement": "FPD (field-potential duration), % change from baseline", "setting": "[2]; 30 µM, 24h", "result": "6.7±3.9", "unit": "%"},
      {"measurement": "BR (beating rate), % change from baseline", "setting": "[2]; 30 µM, 48h", "result": "-8±2", "unit": "%"},
      {"measurement": "FPD (field-potential duration), % change from baseline", "setting": "[2]; 30 µM, 48h", "result": "13.5±5.1", "unit": "%"},
      {"measurement": "BR (beating rate), % change from baseline", "setting": "[2]; 30 µM, 72h", "result": "-9±3", "unit": "%"},
      {"measurement": "FPD (field-potential duration), % change from baseline", "setting": "[2]; 30 µM, 72h", "result": "15.4±5", "unit": "%"},
      {"measurement": "BR (beating rate), % change from baseline", "setting": "[2]; 30 µM, 96h", "result": "-18±4", "unit": "%"},
      {"measurement": "FPD (field-potential duration), % change from baseline", "setting": "[2]; 30 µM, 96h", "result": "23.3±4.7", "unit": "%"},
      {"measurement": "BR (beating rate), % change from baseline", "setting": "[2]; 100 µM, 2h", "result": "2±3", "unit": "%"},
      {"measurement": "FPD (field-potential duration), % change from baseline", "setting": "[2]; 100 µM, 2h", "result": "0.2±2.9", "unit": "%"},
      {"measurement": "BR (beating rate), % change from baseline", "setting": "[2]; 100 µM, 24h", "result": "-2±3", "unit": "%"},
      {"measurement": "FPD (field-potential duration), % change from baseline", "setting": "[2]; 100 µM, 24h", "result": "7.2±3.6", "unit": "%"},
      {"measurement": "BR (beating rate), % change from baseline", "setting": "[2]; 100 µM, 48h", "result": "-7±2", "unit": "%"},
      {"measurement": "FPD (field-potential duration), % change from baseline", "setting": "[2]; 100 µM, 48h", "result": "13.4±3", "unit": "%"},
      {"measurement": "BR (beating rate), % change from baseline", "setting": "[2]; 100 µM, 72h", "result": "-10±3", "unit": "%"},
      {"measurement": "FPD (field-potential duration), % change from baseline", "setting": "[2]; 100 µM, 72h", "result": "17.6±2", "unit": "%"},
      {"measurement": "BR (beating rate), % change from baseline", "setting": "[2]; 100 µM, 96h", "result": "-16±4", "unit": "%"},
      {"measurement": "FPD (field-potential duration), % change from baseline", "setting": "[2]; 100 µM, 96h", "result": "23.9±1.7", "unit": "%"},
      {"measurement": "cessation of beating, flat T-wave or arrhythmic-like events", "setting": "[2]; [4]", "result": "no cessation of beating, flat T-wave or arrhythmic-like events were detected"},
      {"measurement": "Free Cmax", "setting": "[3]", "result": 11.1, "unit": "µM"}
    ]}
  ]
}
